Reference: patent US20260042755A1, “GPR6 INVERSE AGONISTS” (MapLight Therapeutics, Inc., priority 2022, published 2026)

Tests used:
GPR6 = biological target: T1, GPR6 (Homo sapiens, UniProt P46095); test: GPR6 antagonist functional cAMP assay (LANCE Ultra cAMP TR-FRET, CHO cells stably expressing GPR6); format: cell-based
T1 construct: expressed in transfected cells; host or cells: CHO cells
How it was run: (§1)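 We measure cAMP by TR-FRET (665 nm) in cells held in glucose-containing Krebs-Ringer buffer with BSA and a PDE inhibitor, after a 45 min, 37 °C compound incubation. IC50s derive from a four-parameter logistic fit.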

GPR3 = biological target: T2, GPR3 (Homo sapiens, UniProt P46089); test: GPR3 antagonist functional cAMP assay (LANCE Ultra cAMP TR-FRET, CHO cells stably expressing GPR3); format: cell-based
T2 construct: expressed in transfected cells; host or cells: CHO cells
T2 sequence (P46089 whole entry, species assumed): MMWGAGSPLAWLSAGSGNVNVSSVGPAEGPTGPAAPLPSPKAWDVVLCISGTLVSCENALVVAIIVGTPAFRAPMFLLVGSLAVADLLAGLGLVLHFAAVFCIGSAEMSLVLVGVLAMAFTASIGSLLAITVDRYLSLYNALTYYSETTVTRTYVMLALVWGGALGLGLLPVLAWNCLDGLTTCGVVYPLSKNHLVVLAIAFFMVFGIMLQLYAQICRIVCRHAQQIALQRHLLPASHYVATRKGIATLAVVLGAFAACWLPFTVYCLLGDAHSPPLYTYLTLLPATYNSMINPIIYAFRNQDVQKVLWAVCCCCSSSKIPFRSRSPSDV
How it was run: as §1

[1] = CHO cells stably expressing GPR6, cAMP assay (Example 24)
[2] = CHO cells stably expressing GPR3, cAMP assay (Example 24)
[3] = procedure as described in Example 24

T1 sequence (P46095 whole entry): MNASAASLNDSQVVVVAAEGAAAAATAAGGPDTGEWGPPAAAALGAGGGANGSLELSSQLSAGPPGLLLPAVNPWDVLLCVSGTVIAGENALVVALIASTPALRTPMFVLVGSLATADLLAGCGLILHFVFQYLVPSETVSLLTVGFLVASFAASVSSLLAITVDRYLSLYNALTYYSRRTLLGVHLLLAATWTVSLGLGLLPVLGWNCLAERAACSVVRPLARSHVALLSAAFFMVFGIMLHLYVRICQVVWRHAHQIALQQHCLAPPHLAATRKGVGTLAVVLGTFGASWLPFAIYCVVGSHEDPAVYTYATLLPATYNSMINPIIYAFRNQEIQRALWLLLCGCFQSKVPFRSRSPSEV

IC50 (GPR6; [1]) | IC50 (GPR3; [2]) | IC50 (GPR6; procedure of Example 24) | IC50 (GPR3; procedure of Example 24) | SMILES | further results
1000 to 30000 nM | 1000 to 30000 nM | – | – | Cn1cc(-c2nc3cnc(Cl)cc3nc2N2CCN(Cc3ccc(F)cc3F)CC2)cn1 [Compound 193, 1-[7-chloro-3-(1-methyl-1H-pyrazol-4-yl)pyrido[3,4-b]pyrazin-2-yl]-4-[(2,4-difluorophenyl)methyl]piperazine] | –
1000 to 30000 nM | 1000 to 30000 nM | – | – | Cn1cc(-c2nc3cn(C)c(=O)cc3nc2N2CCC(Oc3ccc(F)cc3F)CC2)cn1 [Compound 447, 2-[4-(2,4-difluorophenoxy)piperidin-1-yl]-6-methyl-3-(1-methyl-1H-pyrazol-4-yl)-6H,7H-pyrido[3,4-b]pyrazin-7-one] | –
1000 to 30000 nM | 1000 to 30000 nM | – | – | CC(=O)N1CCc2nc(N3CCC(Oc4ccc(F)cc4F)CC3)c(-c3cnn4c3CN(C)CC4)nc2C1 [Compound 110, 1-{2-[4-(2,4-difluorophenoxy)piperidin-1-yl]-3-{5-methyl-4H,5H,6H,7H-pyrazolo[1,5-a]pyrazin-3-yl}-5H,6H,7H,8H-pyrido[3,4-b]pyrazin-6-yl}ethan-1-one] | –
– | – | < 100 nM | 1000 to 30000 nM | CCn1cc(-c2nc3c(nc2N2CCC(Oc4ccc(F)cc4F)CC2)CCN(C#N)C3)cn1 [Compound 274, 2-(4-(2,4-difluorophenoxy)piperidin-1-yl)-3-(1-ethyl-1H-pyrazol-4-yl)-7,8-dihydropyrido[3,4-b]pyrazine-6(5H)-carbonitrile] | –
– | – | 1000 to 30000 nM | 1000 to 30000 nM | Cn1cc(-c2nc3cnc(C(=O)O)cc3nc2N2CCC(Oc3ccc(F)cc3F)CC2)cn1 [Compound 314, 2-[4-(2,4-difluorophenoxy)piperidin-1-yl]-3-(1-methyl-1H-pyrazol-4-yl)pyrido[3,4-b]pyrazine-7-carboxylic acid] | –
100 to 1000 nM | 1000 to 30000 nM | – | – | Cn1cc(-c2nc3cnc(C4CNC(=O)CO4)cc3nc2N2CCC(Oc3ccc(F)cc3F)CC2)cn1 (stereo not drawn) [Compound 464, 6-(2-(4-(2,4-difluorophenoxy)piperidin-1-yl)-3-(1-methyl-1H-pyrazol-4-yl)pyrido[3,4-b]pyrazin-7-yl)morpholin-3-one] | –
– | – | – | – | CC(=O)N1CCc2nc(N3CCC(Oc4ccc(F)cc4F)CC3)c(-c3cnn(C(F)F)c3)nc2C1 [Compound 15, 1-{3-[1-(difluoromethyl)-1H-pyrazol-4-yl]-2-[4-(2,4-difluorophenoxy)piperidin-1-yl]-5H,6H,7H,8H-pyrido[3,4-b]pyrazin-6-yl}ethan-1-one] | IC50 (GPR6; [3]): 100 to 1000 nM; IC50 (GPR3; [3]): 1000 to 30000 nM
100 to 1000 nM | 1000 to 30000 nM | – | – | Cn1cc(-c2nc3cnc(C[C@@H](O)CO)cc3nc2N2CCC(Oc3ccc(F)cc3F)CC2)cn1 (single isomer, unassigned) [Compound 415] | –
– | – | 100 to 1000 nM | 1000 to 30000 nM | CC(C)(O)Cc1cc2nc(N3CCC(Oc4ccc(F)cc4F)CC3)c(-c3cnn(C(F)F)c3)nc2cn1 [Compound 700, 1-{3-[1-(difluoromethyl)-4-pyrazolyl]-2-[4-(2,4-difluorophenoxy)-1-piperidyl]-1,4,6-triaza-7-naphthyl}-2-methyl-2-propanol] | –
– | – | 100 to 1000 nM | 1000 to 30000 nM | COCC(O)c1cc2nc(N3CCN(Cc4ccc(F)cc4F)CC3)c(-c3cnn(C(F)F)c3)nc2cn1 (stereo not drawn) [Compound 687, 1-{3-[1-(difluoromethyl)-4-pyrazolyl]-2-{4-[(2,4-difluorophenyl)methyl]-1-piperazinyl}-1,4,6-triaza-7-naphthyl}-2-methoxy-1-ethanol] | –
– | – | 1000 to 30000 nM | 1000 to 30000 nM | COc1cc(F)c(CN2CCN(c3nc4c(nc3-c3cnn(C)c3)CN(C(C)=O)CC4)CC2)cc1Cl [Compound 361, 1-(2-{4-[(5-chloro-2-fluoro-4-methoxyphenyl)methyl]piperazin-1-yl}-3-(1-methyl-1H-pyrazol-4-yl)-5H,6H,7H,8H-pyrido[3,4-b]pyrazin-6-yl)ethan-1-one] | –
– | – | – | – | CC(=O)N1CCc2nc(N3CCN(Cc4ccncc4)CC3)c(-c3cnn(C)c3)nc2C1 [Compound 518, 1-[3-(1-methyl-4-pyrazolyl)-2-{4-[(4-pyridyl)methyl]-1-piperazinyl}-5,6,7,8-tetrahydro-1,4,6-triaza-6-naphthyl]-1-ethanone] | IC50 (GPR6; CHO cells stably expressing GPR6, cAMP assay): 1000 to 30000 nM; IC50 (GPR3; CHO cells stably expressing GPR3, cAMP assay): 1000 to 30000 nM
